Laboratory results from patent US4603132A, “Phenothiazine compounds with anti-bronchospastic activity and pharmaceutical compositions containing them” (priority 1984, dated 1986).
pIC50: −log10 of the molar value. Read-outs that look alike come from different tables or passages of the source.

Experiments:
bronchial asthma = conditions: literature, in words; cited from earlier work
[1] = test system: hypotension induced by ACh i.v.; assay: inhibition of the hypotension induced by ACh i.v. in the anestetized rat (systemic effect; absorption by inhalation); format: in vivo; conditions: for absorption through inhalatory route: i.v. vs inhalation, in words
Text: The absorption of compound (I) by inhalation in comparison with mequitazine has been studied by comparing their sistemic effects with intravenous and inhalatory routes. The inhibiting effect of the tested compounds on the hypotension induced by ACh i.v. in the anestetized rat has been used.

[2] = test system: isolated ileum of guinea pig (ACh); assay: spasm induced by ACh in the isolated ileum of guinea pig
[3] = test system: isolated ileum of guinea pig (histamine); assay: spasm induced by histamine in the isolated ileum of guinea pig
[4] = test system: isolated ileum of guinea pig (serotonine); assay: spasm induced by serotonine in the isolated ileum of guinea pig
[5] = test system: isolated ileum of guinea pig (PGF2 alpha); assay: spasm induced by PGF2 alpha in the isolated ileum of guinea pig
[6] = acute toxicity test in the mouse; format: in vivo; conditions: for LD50: in vivo
bronchospasm = assay: anti-bronchospastic activity (general statement); conditions: in words
[7] = test system: isolated trachea of guinea pig (KCl); assay: spasm induced by KCl in the isolated trachea of guinea pig; conditions: for pIC50: Cavia porcellus
[8] = test system: bronchospasm induced by ACh aerosol; conditions: for activity in bronchospasm induced by ACh aerosol: awake guinea pig, in words, i.v. in b22, mequitazine at doses up to 20 times higher or essentially subtoxic
[9] = test system: isolated trachea of guinea pig (histamine); assay: spasm induced by histamine in the isolated trachea of guinea pig; conditions: for pIC50: Cavia porcellus
[10] = test system: bronchospasm induced by histamine aerosol; conditions: for ED50: Cavia porcellus, iv
[11] = test system: isolated trachea of guinea pig (methacholine); conditions: for pIC50: Cavia porcellus; for activity greater than mequitazine: isolated guinea pig trachea, methacholine
[12] = test system: bronchospasm induced by ACh i.v.; conditions: for ED50: Cavia porcellus, iv, anestetized guinea pig, ACh i.v.
H1 receptors = conditions: literature, in words, cited from earlier work
[13] = listed as 3-(10-H-phenothiazin-methyl)-1-methyl-1-azoniabicyclo[2.2.2]-octane iodide
[14] = vs classic anti-histaminic drugs

| Compound | effect in bronchial asthma / bronchial hyperreactivity (bronchial asthma) | absorption through inhalatory route ([1]; anestetized rat) | LD50 ([6]; iv) [mg/kg] | LD50 ([6]; oral route) [mg/kg] | anti-bronchospastic activity (bronchospasm) | pIC50 [7] | pIC50 [9] | ED50 [10] [µmol/kg] | pIC50 [11] | ED50 ([12]; compound by inhalatory route) [µmol/kg] | ED50 ([12]; compound by venous route) [µmol/kg] | other results |
| --- | --- | --- | --- | --- | --- | --- | --- | --- | --- | --- | --- | --- |
| COc1ccc(CN(CCN(C)C)c2ccccn2)cc1 [mepyramine] | singularly inefficacious in the bronchial asthma |  |  |  |  |  |  |  |  |  |  |  |
| CC(CN1c2ccccc2Sc2ccccc21)N(C)C (centres unmarked) [promethazine] | singularly inefficacious in the bronchial asthma |  |  |  |  |  |  |  |  |  |  |  |
| C[N+]12CCC(CC1)C(CN1c3ccccc3Sc3ccccc31)C2 (centres unmarked) [compound (I), 3-(10-H-phenothiazin-methyl)-1-methyl-1-azoniabicyclo[2.2.2]-octane iodide] |  | very poorly absorbed | 3.15 | ~700 | powerful anti-bronchospastic activity | 4.42 | 7.13 | 0.12 | 7.47 | 0.026 | 0.051 | ED50 ([1]; Rattus norvegicus, iv): 1.17 µmol/kg; absorption lower than that of mequitazine ([1]; inhalatory route): at least 24 times; ED50 ([1]; inhibition of hypotension, anestetized rat, inhalatory administration): can not be calculated (25 μmol/kg); times more active than mequitazine [2]: 7 times; times more active than mequitazine [3]: 15 times; times more active than mequitazine [4]: 6 times; times more active than mequitazine [5]: 2 times; absorption by oral route ([6]; inferred from i.v. vs oral LD 50, in words): very modest; activity greater than mequitazine ([7]; isolated guinea pig trachea, KCl): 3 times; ED50 ([8]; Cavia porcellus, iv): 0.41 µmol/kg; activity in bronchospasm induced by ACh aerosol [8]: intense and dose-dependent activity; activity in bronchospasm induced by ACh aerosol [8, 13]: remarkable power; activity greater than mequitazine ([9]; isolated guinea pig trachea, histamine): 50 times; activity higher than that of mequitazine ([10]; awake guinea pig, histamine aerosol, i.v.): about 5 times; activity greater than mequitazine [11]: 1200 times; activity greater than mequitazine [11, 13]: 1000 times; anti-bronchospastic activity higher than that of mequitazine ([12]; inhalatory route): 20 times; activity higher than that of mequitazine ([12]; venous route): 13 times |
| c1ccc2c(c1)Sc1ccccc1N2CC1CN2CCC1CC2 (centres unmarked) [mequitazine, reference compound] | protective action | complete absorption | 23.7 | ~350 | very slightly active or even inactive | 3.96 | 5.43 | 0.65 | 4.40 | 0.499 | 0.674 | ED50 ([1]; inhaled or nasal, inhibition of hypotension, anestetized rat, inhalatory administration, read-out: ED 50): 4.06 µmol/kg; ED50 ([1]; iv, inhibition of hypotension, anestetized rat, i.v. route, read-out: ED 50): 4.01 µmol/kg; action on H1 receptors (H1 receptors): histamine antagonism at the level of the H1 receptors; duration of action (H1 receptors; [14]): long lasting action; side effects of the CNS level (H1 receptors; [14]): scarcity of side effects |
| CN(C)CCC(c1ccc(Cl)cc1)c1ccccn1 (centres unmarked) [clopheniramine] | singularly inefficacious in the bronchial asthma |  |  |  |  |  |  |  |  |  |  |  |
